Measurements from patent US8263777B2, “Aminopyrazole triazolothiadiazole inhibitor of c-Met protein kinase” (Vertex Pharmaceuticals Incorporated, priority 2010, dated 2012).
Several values for one entry are separate records, joined by “and”; a condition that tells them apart may be missing. Equal entries are not always repeated.

How the values were obtained:
[1] = system: SNU-5 gastric cancer cells; assay: Inhibition of tumor growth of subcutaneously implanted SNU-5 cells in SCID mice; type: in vivo; conditions: for SNU-5 tumor weight at study termination, Mean: Day 38, group mean; for SNU-5 tumor weight at study termination, Mean / SNU-5 tumor weight at study termination, individual animal: in mg (unit assumed); for SNU-5 tumor weight at study termination, individual animal: Day 38, one value per animal ID, listed as Compound 3; for percent tumor weight reduction vs vehicle control: P<0.002
Method: SNU-5 cells (CRL-5973, American Type Culture Collection, Manassas, Va.) were cultured in ISCOVE's Modified Dulbecco's Medium (IMDM) (Invitrogen, Carlsbad, Calif.) supplemented with 10% fetal bovine serum (FBS) (Hyclone, Logan, Utah), 100 units/mL of penicillin, […] of streptomycin (Invitrogen, Carlsbad, Calif.), and 2 mM L-glutamine. Cells were cultured for fewer than 4 passages prior to implantation. Female SCID mice (Fox Chase SCID, CB-17, mice weighing 17 to 19 g obtained from Charles River Laboratories, Wilmington, Mass.) were injected subcutaneously (s.c.) with 5×10^6 SNU-5 cells into the right dorsal axillary region on Day 0. Treatments were initiated on Day 25 when the average tumor volume reached approximately 358 mm^3.
Compound 1, formulated in a vehicle containing 30% (w/v) Propylene Glycol and 10% Solutol (Sigma-Aldrich, St Louis, Mo.) as a suspended homogenous form, was administered orally (p.o.) once daily (QD) at total daily doses of 3, 10, and 30 mg/kg/day for 14 days. Tumor volumes (calculated using the ellipsoid formula, (length×width^2)/2, where length and width represented the largest and smallest dimensions of the tumor, respectively) were recorded for two weeks after the initiation of treatment. The study was terminated 38 days after tumor implantation.

c-Met [2] = molecular target: T1, c-Met (Homo sapiens, UniProt P08581); assay: Inhibition of c-Met activity in Snu5 gastric carcinoma cells (Snu5-AP1-Luc-Pest luciferase); type: cell-based; parameters: is a human gastric carcinoma known to overexpress c-Met, which is constitutively active; host or cells: Snu5 human gastric carcinoma cells transduced with a 6xAP1-luciferase-PEST reporter (Snu5-AP1-Luc-Pest); conditions: 6 hours, luciferase luminescence
T1 sequence (P08581 25-1390): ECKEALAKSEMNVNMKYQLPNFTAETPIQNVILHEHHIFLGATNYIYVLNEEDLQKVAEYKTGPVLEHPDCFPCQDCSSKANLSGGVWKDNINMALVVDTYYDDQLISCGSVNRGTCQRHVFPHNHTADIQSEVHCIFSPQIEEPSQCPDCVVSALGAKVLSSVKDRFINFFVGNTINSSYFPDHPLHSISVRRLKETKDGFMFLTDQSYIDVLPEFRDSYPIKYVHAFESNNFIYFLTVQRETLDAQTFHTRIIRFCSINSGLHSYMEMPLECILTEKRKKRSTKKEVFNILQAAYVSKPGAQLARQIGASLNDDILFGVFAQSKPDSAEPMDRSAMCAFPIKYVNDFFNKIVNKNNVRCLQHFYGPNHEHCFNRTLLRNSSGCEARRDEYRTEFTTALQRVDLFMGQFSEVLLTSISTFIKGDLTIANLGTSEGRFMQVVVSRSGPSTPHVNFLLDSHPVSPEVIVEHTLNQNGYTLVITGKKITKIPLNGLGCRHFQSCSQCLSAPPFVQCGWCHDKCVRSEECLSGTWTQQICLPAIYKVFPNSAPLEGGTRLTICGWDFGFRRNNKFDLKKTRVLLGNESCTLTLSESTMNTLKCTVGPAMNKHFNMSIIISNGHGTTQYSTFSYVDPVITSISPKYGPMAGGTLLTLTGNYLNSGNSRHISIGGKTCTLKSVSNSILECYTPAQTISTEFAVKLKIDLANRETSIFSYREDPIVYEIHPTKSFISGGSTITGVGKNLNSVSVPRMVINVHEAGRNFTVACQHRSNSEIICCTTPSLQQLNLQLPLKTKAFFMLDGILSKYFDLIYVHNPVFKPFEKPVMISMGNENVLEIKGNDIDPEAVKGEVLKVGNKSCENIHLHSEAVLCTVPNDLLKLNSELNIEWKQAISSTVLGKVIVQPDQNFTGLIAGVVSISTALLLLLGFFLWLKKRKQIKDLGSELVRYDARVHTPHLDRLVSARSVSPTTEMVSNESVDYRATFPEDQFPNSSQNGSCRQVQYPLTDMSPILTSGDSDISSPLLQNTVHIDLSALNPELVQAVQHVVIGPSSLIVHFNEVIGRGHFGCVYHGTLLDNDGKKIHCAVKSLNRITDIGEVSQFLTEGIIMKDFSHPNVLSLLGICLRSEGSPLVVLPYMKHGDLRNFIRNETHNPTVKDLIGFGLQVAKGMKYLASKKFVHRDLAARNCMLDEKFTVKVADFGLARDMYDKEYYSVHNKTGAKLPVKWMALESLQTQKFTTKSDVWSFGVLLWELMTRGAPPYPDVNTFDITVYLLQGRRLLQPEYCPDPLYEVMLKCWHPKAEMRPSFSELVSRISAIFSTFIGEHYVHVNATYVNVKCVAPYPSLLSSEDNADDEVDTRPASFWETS
From the text: Compound 1 was also screened for its ability to inhibit the Luciferase-induced signal in an engineered Snu5 cell line. Snu5 [obtained from American Type Culture Collection (Catalog number CRL-5973)] is a human gastric carcinoma known to overexpress c-Met, which is constitutively active. The cell line was transduced with the retrovirus, pCLPCX, which contains a genetic construct consisting of 6×AP1 promoter response elements and a luciferase gene having a C-terminal PEST sequence (proteolytic signal from mouse ornithine decarboxylase, which reduces the half-life of the luciferase). The constitutively active c-Met activates cellular pathways (principally MAP kinase), resulting in AP-1-induced transcription of luciferase-PEST and translation into the final product, the activity of which is quantifiable as a chemiluminescent readout upon the addition of luciferin (Steady-Glo from Promega.). Residual luminescence is strongly correlated to the inhibition of c-Met. A stable cell line was obtained by selecting the new cell line (Snu5-AP1-Luc-Pest) with puromycin. […] The Snu5-AP1-Luc-Pest cells were counted and diluted to 200,000-cells/mL solution. […] The plate was read on a 1450 Microbeta Liquid Scintillation and Luminescence Counter (Perkin-Elmer).

c-Met [3] = molecular target: T1, c-Met; assay: c-Met kinase inhibition assay (radiometric, 33P-ATP, polyE4Y); type: biochemical; conditions: 0.5 nM c-Met, 35 μM ATP, competitive tight-binding fit
Method: Compound 1 was screened for its ability to inhibit c-Met kinase using a standard radiometric assay. Briefly, in this kinase assay the transfer of the terminal ^33P-phosphate in ^33P-ATP to substrate polyE4Y is interrogated. The assay was carried out in 96-well plates to a final volume of 100 μL per well containing 0.5 nM c-Met, 100 mM HEPES (pH 7.5), 10 mM MgCl2, 25 mM NaCl, 0.01% BSA, 1 mM DTT, 0.5 mg/mL polyE4Y, and 35 μM ATP. Accordingly, Compound 1 was dissolved in DMSO to make a 10 mM initial stock solution. Serial dilutions in DMSO were then made to obtain the final solutions for the assay. A 1.5 μL aliquot of DMSO or inhibitor in DMSO was added to each well, followed by the addition of ^33P-ATP, and finally the addition of c-Met and polyE4Y (obtained from Sigma). After 20 min, the reaction was quenched with 50 μL of 30% trichloroacetic acid (TCA) containing 4 mM ATP. The reaction mixture was transferred to the 0.66 mm GF filter plates (Corning) and washed three times with 5% TCA. Following the addition of 50 μL of Ultimate Gold™ high efficiency scintillant (Packard Bioscience), the samples were counted in a Packard TopCount NXT Microplate Scintillation and Luminescence Counter (Packard BioScience). The Ki values were calculated using Microsoft Excel Solver macros to fit the data to the kinetic model for competitive tight-binding inhibition.

[4] = system: A549 cells (A549HGF-lm1115); assay: Inhibition of tumor metastasis to the lungs, subcutaneous A549HGF tumors in SCID mice; type: in vivo; conditions: for Luminescence of homogenized lung tissue, Mean / Luminescence of homogenized lung tissue, individual animal: study termination; for Luminescence of homogenized lung tissue, Mean: group mean; for Luminescence of homogenized lung tissue, individual animal: one value per animal ID
Method: Compound 1 was investigated for its ability to inhibit the metastasis of subcutaneously implanted tumors to the lungs of severe combined immunodeficient (SCID) mice. Accordingly, A549 cells (A549HGF-lm1115, transfected with hepatocyte growth factor, luciferase, and green fluorescent protein) were cultured in RPMI1640 medium (Invitrogen, Carlsbad, Calif.) supplemented with 10% fetal bovine serum (FBS) (Hyclone, Logan, Utah), 100 units/mL of penicillin, […] of streptomycin (Invitrogen, Carlsbad, Calif.), and 2 mM L-glutamine for fewer than 4 passages prior to implantation. 3-(Difluoro(quinolin-6-yl)methyl)-N-(1-methyl-1H-pyrazol-4-yl)-[1,2,4]triazolo[3,4-b][1,3,4]thiadiazol-6-amine (Compound 1) was formulated in a vehicle containing 0.5% (w/v) methylcellulose (Sigma-Aldrich, St Louis, Mo.) and 0.1% (v/v) Tween 80™ as a dissolved homogenous form, which was prepared fresh each day and administered to mice via oral gavage at a dosing volume of 10 mL/kg.
Female SCID mice were injected subcutaneously (s.c.) with 5×10^6 A549HGF cells into the right dorsal axillary region on Day 0. Treatments were initiated on the same day by oral administration (p.o.) of Compound 1 once daily (QD) at total daily doses of 30 and 60 mg/kg/day for 22 days. Ectopic tumor measurements were recorded twice a week for 3 weeks after the initiation of treatment.
In order to evaluate the anti-metastatic potential of Compound 1, at the termination of the study all animal lung tissues were harvested and lysed by homogenization for ex vivo quantification via luciferase luminescence.

`Cn1cc(Nc2nn3c(C(F)(F)c4ccc5ncccc5c4)nnc3s2)cn1` [Compound 1, 3-(difluoro(quinolin-6-yl)methyl)-N-(1-methyl-1H-pyrazol-4-yl)-[1,2,4]triazolo[3,4-b][1,3,4]thiadiazol-6-amine] gave an SNU-5 tumor volume ([1]; 3 mg/kg/day p.o. QD, Day 25 (treatment start), mean ± standard error) of 356.1 ± 24.5 mm^3, an SNU-5 tumor volume ([1]; 3 mg/kg/day p.o. QD, Day 28, mean ± standard error) of 432.6 ± 31.2 mm^3 and an SNU-5 tumor volume ([1]; 3 mg/kg/day p.o. QD, Day 31, mean ± standard error) of 511.9 ± 36.3 mm^3. The SNU-5 tumor volume ([1]; 3 mg/kg/day p.o. QD, Day 35, mean ± standard error) was 587.8 ± 39.5 mm^3, the SNU-5 tumor volume ([1]; 3 mg/kg/day p.o. QD, Day 38, mean ± standard error) was 670.4 ± 46.2 mm^3 and the “SNU-5 tumor weight at study termination, Mean” value (shortened to “SNU-5 tumor weight … Mean”) ([1]; 3 mg/kg/day) was 619.9. For the same compound, the “SNU-5 tumor weight at study termination, individual animal” value (shortened to “SNU-5 tumor weight … individual animal”) ([1]; 3 mg/kg/day) was 619 and 505 and 525 and 485 and 605 and 655 and 851 and 770 and 405 and 790 and 938 and 508 and 368 and 679 and 596, the “percent tumor weight reduction vs vehicle control” value (“percent tumor weight reduction” below) ([1]; 3 mg/kg/day) was 34.5% and the SNU-5 tumor volume ([1]; 10 mg/kg/day p.o. QD, Day 25 (treatment start), mean ± standard error) was 358.0 ± 17.1 mm^3. The SNU-5 tumor volume ([1]; 10 mg/kg/day p.o. QD, Day 28, mean ± standard error) was 354.2 ± 21.7 mm^3, the SNU-5 tumor volume ([1]; 10 mg/kg/day p.o. QD, Day 31, mean ± standard error) was 381.8 ± 25.6 mm^3 and the SNU-5 tumor volume ([1]; 10 mg/kg/day p.o. QD, Day 35, mean ± standard error) was 406.6 ± 23.4 mm^3. For the same compound, the SNU-5 tumor volume ([1]; 10 mg/kg/day p.o. QD, Day 38, mean ± standard error) was 453.9 ± 27.3 mm^3, the “SNU-5 tumor weight … Mean” value ([1]; 10 mg/kg/day) was 385.7 and the “SNU-5 tumor weight … individual animal” value ([1]; 10 mg/kg/day) was 319 and 476 and 358 and 469 and 279 and 660 and 418 and 400 and 387 and 410 and 349 and 275 and 305 and 371 and 309. The “percent tumor weight reduction” value ([1]; 10 mg/kg/day) was 59.3%, the SNU-5 tumor volume ([1]; 30 mg/kg/day p.o. QD, Day 25 (treatment start), mean ± standard error) was 359.5 ± 35.1 mm^3 and the SNU-5 tumor volume ([1]; 30 mg/kg/day p.o. QD, Day 28, mean ± standard error) was 281.3 ± 28.7 mm^3. The SNU-5 tumor volume ([1]; 30 mg/kg/day p.o. QD, Day 31, mean ± standard error) was 256.5 ± 23.6 mm^3, the SNU-5 tumor volume ([1]; 30 mg/kg/day p.o. QD, Day 35, mean ± standard error) was 255.7 ± 21.1 mm^3 and the SNU-5 tumor volume ([1]; 30 mg/kg/day p.o. QD, Day 38, mean ± standard error) was 273.4 ± 24.2 mm^3. The “SNU-5 tumor weight … Mean” value ([1]; 30 mg/kg/day) was 251.2, the “SNU-5 tumor weight … individual animal” value ([1]; 30 mg/kg/day) was 180 and 173 and 260 and 420 and 250 and 156 and 350 and 327 and 150 and 246 and the “tumor regression by tumor volume analysis” value ([1]; 30 mg/kg/day, P<0.001) was −23.9%. The “percent tumor weight reduction” value ([1]; 30 mg/kg/day) was 73.5%, the anti-tumor activity ([1]; all three dose levels tested (3, 10, 30 mg/kg/day)) was “significant and dose-dependent anti-tumor activity” and the IC50 (c-Met [2]) was under 20 nM. For the same compound, the Ki (c-Met [3]) was under 20 nM, the “Luminescence of homogenized lung tissue, Mean” value ([4]; 30 mg/kg/day) was 12740.8 counts and the “Luminescence of homogenized lung tissue, individual animal” value ([4]; 30 mg/kg/day) was 3890 counts and 5270 counts and 2270 counts and 2620 counts and 17200 counts and 21300 counts and 6430 counts and 4340 counts and 65400 counts and 2230 counts and 16300 counts and 5640 counts. The “formation of lung metastases” value ([4]; 60 mg/kg/day compared to vehicle controls, p<0.02) was “significantly inhibits”, the “Luminescence of homogenized lung tissue, Mean” value ([4]; 60 mg/kg/day, p<0.02 vs vehicle) was 6672.3±1986.1 counts and 6672.3 counts and the “Luminescence of homogenized lung tissue, individual animal” value ([4]; 60 mg/kg/day) was 2170 counts and 1480 counts and 2540 counts and 19300 counts and 21100 counts and 3800 counts and 16500 counts and 1440 counts and 2620 counts and 2920 counts and 5540 counts and 4860 counts and 2470 counts. The “change in primary A549 tumor cell growth at the site of implantation vs vehicle” value ([4]; 30 or 60 mg/kg/day p.o. QD, 22 days) was “no significant change”.
